Results as given in patent publication US8399459B2, “1,4 oxazines as BACE1 and/or BACE2 inhibitors” (Hoffmann-La Roche Inc., priority 2011, dated 2013).
Counter-ions that a name gives are not always drawn.

Each compound was assayed against T1, BACE1 (Homo sapiens, UniProt P56817) (assay: Cellular Aβ-lowering assay (Aβ40 ELISA, HEK293 cells expressing human APP695)). Settings: HEK293 cells stably expressing human APP695; Aβ40 in supernatant after 18-20 hrs.
T1 construct: Human HEK293 cells which are stably transfected with a vector expressing a cDNA of the human APP wt gene (APP695); endogenous in cells; host or cells: HEK293 (human), stably transfected with human APP695 wt only
T1 sequence (P56817 46-501): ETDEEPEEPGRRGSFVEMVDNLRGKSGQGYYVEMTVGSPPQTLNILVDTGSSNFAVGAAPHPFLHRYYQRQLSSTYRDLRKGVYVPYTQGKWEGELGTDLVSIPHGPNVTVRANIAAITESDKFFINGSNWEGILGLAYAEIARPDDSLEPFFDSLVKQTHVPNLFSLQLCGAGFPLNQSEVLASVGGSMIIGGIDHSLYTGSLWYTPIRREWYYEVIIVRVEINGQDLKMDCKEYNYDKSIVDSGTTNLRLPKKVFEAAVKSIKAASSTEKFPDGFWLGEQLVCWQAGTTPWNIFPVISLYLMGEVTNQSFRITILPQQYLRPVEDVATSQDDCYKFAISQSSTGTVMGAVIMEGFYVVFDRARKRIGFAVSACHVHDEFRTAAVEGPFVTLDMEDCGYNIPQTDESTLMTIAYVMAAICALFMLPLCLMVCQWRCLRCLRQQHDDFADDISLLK
Type: cell-based
Experimental: Cellular Aβ-Lowering Assay:
Human HEK293 cells which are stably transfected with a vector expressing a cDNA of the human APP wt gene (APP695) were used to assess the potency of the compounds in a cellular assay. The cells were seeded in 96-well microtiter plates in cell culture medium (Iscove, plus 10% (v/v) fetal bovine serum, glutamine, penicillin/streptomycin) to about 80% confluence and the compounds were added at a 10× concentration in 1/10 volume of medium without FCS containing 8% DMSO (final concentration of DMSO was kept at 0.8% v/v). After 18-20 hrs incubation at 37° C. and 5% CO2 in a humidified incubator the culture supernatant was harvested for the determination of Aβ40 concentrations. 96well ELISA plates (e.g., Nunc MaxiSorb) were coated with monoclonal antibody which specifically recognize the C-terminal end of Aβ40 (Brockhaus et al., NeuroReport 9, 1481-1486; 1998). After blocking of non-specific binding sites with e.g. 1% BSA and washing, the culture supernatants were added in suitable dilutions together with a horseradish peroxidase-coupled Aβ detection antibody (e.g., antibody 4G8, Senetek, Maryland Heights, Mo.) and incubated for 5 to 7 hrs. Subsequently the wells of the microtiter plate were washed extensively with Tris-buffered saline containing 0.05% Tween 20 and the assay was developed with tetramethylbenzidine/H2O2 in citric acid buffer. After stopping the reaction with one volume 1 N H2SO4 the reaction was measured in an ELISA reader at 450 nm wavelength. The concentrations of Aβ in the culture supernatants were calculated from a standard curve obtained with known amounts of pure Aβ peptide.

Row | IC50 | SMILES
1 | 1.06 µM | CC1(c2cccc(-c3ccsc3)c2)COCC(N)=N1 (stereo not shown) [Example 3, 5-Methyl-5-(3-thiophen-3-yl-phenyl)-5,6-dihydro-2H-[1,4]oxazin-3-ylamine]
2 | 0.39 µM | CC1(c2cccc(-c3cccc(Cl)c3)c2)COCC(N)=N1 (stereo not shown) [Example 4, 5-(3′-Chloro-biphenyl-3-yl)-5-methyl-5,6-dihydro-2H-[1,4]oxazin-3-ylamine]
3 | 4.06 µM | CC1(c2cccc(-c3cc(Cl)cc(Cl)c3Cl)c2)COCC(N)=N1 (stereo not shown) [Example 6, 5-Methyl-5-(2′,3′,5′-trichloro-biphenyl-3-yl)-5,6-dihydro-2H-[1,4]oxazin-3-ylamine]
4 | 1.5 µM | Cc1cc(Cl)cc(-c2cccc(C3(C)COCC(N)=N3)c2)c1F (stereo not shown) [Example 10, 5-(5′-Chloro-2′-fluoro-3′-methyl-biphenyl-3-yl)-5-methyl-5,6-dihydro-2H-[1,4]oxazin-3-ylamine]
5 | 1.84 µM | CC1(c2cccc(-c3cc(Cl)cc(C(F)(F)F)c3)c2)COCC(N)=N1 (stereo not shown) [Example 11, 5-(5′-Chloro-3′-trifluoromethyl-biphenyl-3-yl)-5-methyl-5,6-dihydro-2H-[1,4]oxazin-3-ylamine]
6 | 0.28 µM | CC1(c2cccc(-c3cccc(C#N)c3)c2)COCC(N)=N1 (stereo not shown) [Example 16, 3′-(5-Amino-3-methyl-3,6-dihydro-2H-[1,4]oxazin-3-yl)-biphenyl-3-carbonitrile]
7 | 6.12 µM | CC(C)(C)c1ccc(-c2cccc(C3(C)COCC(N)=N3)c2)cc1 (stereo not shown) [Example 18, 5-(4′-tert-butyl-biphenyl-3-yl)-5-methyl-5,6-dihydro-2H-[1,4]oxazin-3-ylamine formate]
8 | 1.06 µM | CC1(c2cccc(-c3ccnc(Cl)c3)c2)COCC(N)=N1 (stereo not shown) [Example 19, 5-[3-(2-chloro-pyridin-4-yl)-phenyl]-5-methyl-5,6-dihydro-2H-[1,4]oxazin-3-ylamine formate]
9 | 0.49 µM | CC1(c2cccc(-c3cc(Cl)cnc3Cl)c2)COCC(N)=N1 (stereo not shown) [Example 20, 5-[3-(2,5-Dichloro-pyridin-3-yl)-phenyl]-5-methyl-5,6-dihydro-2H-[1,4]oxazin-3-ylamine]
10 | 3.66 µM | Cn1ncc2c(-c3cccc(C4(C)COCC(N)=N4)c3)cccc21 (stereo not shown) [Example 23, 5-Methyl-5-[3-(1-methyl-1H-indazol-4-yl)-phenyl]-5,6-dihydro-2H-[1,4]oxazin-3-ylamine]
11 | 6.41 µM | CC1(c2cccc(-c3ccc4[nH]ccc4c3)c2)COCC(N)=N1 (stereo not shown) [Example 25, 5-[3-(1H-Indol-5-yl)-phenyl]-5-methyl-5,6-dihydro-2H-[1,4]oxazin-3-ylamine]
12 | 13 µM | Cc1cc(-c2cccc(C3(C)COCC(N)=N3)c2)ccc1Cl (stereo not shown) [Example 26, 5-(4′-Chloro-3′-methyl-biphenyl-3-yl)-5-methyl-5,6-dihydro-2H-[1,4]oxazin-3-ylamine]
13 | 9.1 µM | CCOc1cccc(-c2cccc(C3(C)COCC(N)=N3)c2)c1 (stereo not shown) [Example 30, 5-(3′-Ethoxy-biphenyl-3-yl)-5-methyl-5,6-dihydro-2H-[1,4]oxazin-3-ylamine]
14 | 12.6 µM | CC1(c2cccc(-c3ccc(Cl)cn3)c2)COCC(N)=N1 (stereo not shown) [Example 33, 5-[3-(5-Chloro-pyridin-2-yl)-phenyl]-5-methyl-5,6-dihydro-2H-[1,4]oxazin-3-ylamine]

Second part, the compound before the results:

Row | SMILES | IC50
15 | COc1cncc(-c2cccc(C3(C)COCC(N)=N3)c2)c1 (stereo not shown) [Example 1, 5-[3-(5-Methoxy-pyridin-3-yl)-phenyl]-5-methyl-5,6-dihydro-2H-[1,4]oxazin-3-ylamine] | 0.1 µM
16 | CC1(c2cccc(-c3ccc(F)cc3)c2)COCC(N)=N1 (stereo not shown) [Example 2, 5-(4′-Fluoro-biphenyl-3-yl)-5-methyl-5,6-dihydro-2H-[1,4]oxazin-3-ylamine] | 1.17 µM
17 | CC1(c2cccc(-c3cc(Cl)ccc3Cl)c2)COCC(N)=N1 (stereo not shown) [Example 5, 5-(2′,5′-Dichloro-biphenyl-3-yl)-5-methyl-5,6-dihydro-2H-[1,4]oxazin-3-ylamine] | 1.09 µM
18 | CC1(c2cccc(-c3ccc(F)c(Cl)c3)c2)COCC(N)=N1 (stereo not shown) [Example 7, 5-(3′-Chloro-4′-fluoro-biphenyl-3-yl)-5-methyl-5,6-dihydro-2H-[1,4]oxazin-3-ylamine] | 0.65 µM
19 | COc1cc(Cl)cc(-c2cccc(C3(C)COCC(N)=N3)c2)c1 (stereo not shown) [Example 8, 5-(3′-Chloro-5′-methoxy-biphenyl-3-yl)-5-methyl-5,6-dihydro-2H-[1,4]oxazin-3-ylamine] | 1.49 µM
20 | CC1(c2cccc(-c3cc(Cl)cc(C(N)=O)c3)c2)COCC(N)=N1 (stereo not shown) [Example 12, 3′-(5-Amino-3-methyl-3,6-dihydro-2H-[1,4]oxazin-3-yl)-5-chloro-biphenyl-3-carboxylic acid amide] | 1.12 µM
21 | CC1(c2cccc(-c3cc(Cl)cc(C(=O)N4CCOCC4)c3)c2)COCC(N)=N1 (stereo not shown) [Example 13, [3′-(5-Amino-3-methyl-3,6-dihydro-2H-[1,4]oxazin-3-yl)-5-chloro-biphenyl-3-yl]-morpholin-4-yl-methanone] | 2.39 µM
22 | CC1(c2cccc(-c3cccc(OC(F)F)c3)c2)COCC(N)=N1 (stereo not shown) [Example 14, 5-(3′-Difluoromethoxy-biphenyl-3-yl)-5-methyl-5,6-dihydro-2H-[1,4]oxazin-3-ylamine] | 0.48 µM
23 | CC1(c2cccc(-c3cccc(OC(F)(F)F)c3)c2)COCC(N)=N1 (stereo not shown) [Example 15, 5-Methyl-5-(3′-trifluoromethoxy-biphenyl-3-yl)-5,6-dihydro-2H-[1,4]oxazin-3-ylamine] | 2.31 µM
24 | CC1(c2cccc(-c3cccc(CC#N)c3)c2)COCC(N)=N1 (stereo not shown) [Example 17, [3′-(5-Amino-3-methyl-3,6-dihydro-2H-[1,4]oxazin-3-yl)-biphenyl-3-yl]-acetonitrile] | 1.06 µM
25 | CC1(c2cccc(-c3ccc4c(c3)OC(F)(F)O4)c2)COCC(N)=N1 (stereo not shown) [Example 21, 5-[3-(2,2-Difluoro-benzo[1,3]dioxol-5-yl)-phenyl]-5-methyl-5,6-dihydro-2H-[1,4]oxazin-3-ylamine] | 4.55 µM
26 | CC1(c2cccc(-c3ccc4c(c3)OCO4)c2)COCC(N)=N1 (stereo not shown) [Example 22, 5-(3-Benzo[1,3]dioxol-5-yl-phenyl)-5-methyl-5,6-dihydro-2H-[1,4]oxazin-3-ylamine] | 1.06 µM
27 | CC1(c2cccc(-c3cc4ccc(Cl)cc4[nH]3)c2)COCC(N)=N1 (stereo not shown) [Example 24, 5-[3-(6-Chloro-1H-indol-2-yl)-phenyl]-5-methyl-5,6-dihydro-2H-[1,4]oxazin-3-ylamine] | 12.7 µM
28 | CC1(c2cccc(-c3ccc(F)cc3F)c2)COCC(N)=N1 (stereo not shown) [Example 27, 5-(2′,4′-Difluoro-biphenyl-3-yl)-5-methyl-5,6-dihydro-2H-[1,4]oxazin-3-ylamine] | 1.06 µM
29 | CC1(c2cccc(-c3cc(F)cc(F)c3)c2)COCC(N)=N1 (stereo not shown) [Example 28, 5-(3′,5′-Difluoro-biphenyl-3-yl)-5-methyl-5,6-dihydro-2H-[1,4]oxazin-3-ylamine] | 2.08 µM
30 | CC1(c2cccc(-c3ccccc3Cl)c2)COCC(N)=N1 (stereo not shown) [Example 29, 5-(2′-Chloro-biphenyl-3-yl)-5-methyl-5,6-dihydro-2H-[1,4]oxazin-3-ylamine] | 1.06 µM
31 | CC1(c2ccc(F)c(-c3cc(Cl)cc(Cl)c3)c2)COCC(N)=N1 (stereo not shown) [Example 31, 5-(3′,5′-Dichloro-6-fluoro-biphenyl-3-yl)-5-methyl-5,6-dihydro-2H-[1,4]oxazin-3-ylamine] | 1 µM
